ChEMBL document CHEMBL1153180, “Discovery and initial optimization of 5,5'-disubstituted aminohydantoins as potent beta-secretase (BACE1) inhibitors” (Bioorg Med Chem Lett, 2010)
In brackets after ≈: the same amount, converted by molar mass.

Tests used:
[1] = molecular target: T1, Beta-secretase 1 (Homo sapiens, UniProt P56817); assay: Inhibition of human BACE1 by FRET assay
[2] = molecular target: T2, Beta-secretase 2 (Homo sapiens, UniProt Q9Y5Z0); assay: Inhibition of human BACE2 by FRET assay
T2 sequence (Q9Y5Z0 whole entry): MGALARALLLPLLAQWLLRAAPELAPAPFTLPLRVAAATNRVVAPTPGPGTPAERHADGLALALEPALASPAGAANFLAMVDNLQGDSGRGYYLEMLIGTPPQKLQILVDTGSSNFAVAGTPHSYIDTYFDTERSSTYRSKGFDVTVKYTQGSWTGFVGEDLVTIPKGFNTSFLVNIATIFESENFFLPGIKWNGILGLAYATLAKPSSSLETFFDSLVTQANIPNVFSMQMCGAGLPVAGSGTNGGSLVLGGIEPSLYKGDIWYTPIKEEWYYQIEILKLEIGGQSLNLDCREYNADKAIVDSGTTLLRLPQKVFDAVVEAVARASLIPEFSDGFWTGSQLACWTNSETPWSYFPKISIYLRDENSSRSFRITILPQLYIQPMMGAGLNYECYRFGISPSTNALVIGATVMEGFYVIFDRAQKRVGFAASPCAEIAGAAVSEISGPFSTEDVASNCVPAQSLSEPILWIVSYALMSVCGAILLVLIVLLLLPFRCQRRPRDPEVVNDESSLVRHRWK

[3] = molecular target: Beta-secretase 1 (Cricetulus griseus, UniProt G3IAK4); assay: Inhibition of human recombinant APP expressed in CHO-K1 cells assessed as reduction of amyloid beta level by ELISA; assay type: cell-based
Chain of Beta-secretase 1 (Cricetulus griseus, UniProt G3IAK4) (G3IAK4 whole entry): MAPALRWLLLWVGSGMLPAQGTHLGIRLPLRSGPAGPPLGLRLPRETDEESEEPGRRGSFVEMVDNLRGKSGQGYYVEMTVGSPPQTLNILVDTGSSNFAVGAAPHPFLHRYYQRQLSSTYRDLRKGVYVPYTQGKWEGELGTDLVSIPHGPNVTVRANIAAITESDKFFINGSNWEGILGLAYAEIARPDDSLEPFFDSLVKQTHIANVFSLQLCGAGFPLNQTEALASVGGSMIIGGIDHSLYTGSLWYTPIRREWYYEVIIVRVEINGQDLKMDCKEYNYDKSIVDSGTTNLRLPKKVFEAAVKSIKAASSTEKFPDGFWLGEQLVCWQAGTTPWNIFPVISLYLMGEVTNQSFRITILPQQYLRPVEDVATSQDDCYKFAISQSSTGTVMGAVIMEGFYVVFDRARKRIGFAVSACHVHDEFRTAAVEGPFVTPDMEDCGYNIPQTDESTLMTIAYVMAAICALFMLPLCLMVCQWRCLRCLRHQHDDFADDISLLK

[4] = Solubility at pH 7.4; assay type: physicochemical; conditions: buffer
[5] = Membrane permeability by PAMPA; assay type: ADME; conditions: read-out: permeability
[6] = Membrane permeability by PAMPA-BBB assay; assay type: ADME; conditions: read-out: permeability
[7] = molecular target: T3, Cathepsin D (Homo sapiens, UniProt P07339); assay: Inhibition of human cathepsin D at 100 uM by FRET assay
T3 sequence (P07339 65-162 limits assumed): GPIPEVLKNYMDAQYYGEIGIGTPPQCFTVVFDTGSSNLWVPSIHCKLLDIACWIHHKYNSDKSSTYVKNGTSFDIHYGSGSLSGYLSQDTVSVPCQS
T3 sequence (P07339 169-412 limits assumed): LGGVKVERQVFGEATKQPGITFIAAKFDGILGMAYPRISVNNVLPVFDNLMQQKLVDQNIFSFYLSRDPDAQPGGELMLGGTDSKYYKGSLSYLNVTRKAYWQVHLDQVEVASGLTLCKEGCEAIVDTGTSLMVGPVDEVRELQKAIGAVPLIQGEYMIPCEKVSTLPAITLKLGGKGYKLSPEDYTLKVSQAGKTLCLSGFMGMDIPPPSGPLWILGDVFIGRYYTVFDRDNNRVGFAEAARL

[8] = molecular target: T3, Cathepsin D; assay: Inhibition of human cathepsin D by FRET assay
[9] = molecular target: T1, Beta-secretase 1; assay: Inhibition of human BACE1 at 5 uM by FRET assay

T1 sequence (P56817 whole entry): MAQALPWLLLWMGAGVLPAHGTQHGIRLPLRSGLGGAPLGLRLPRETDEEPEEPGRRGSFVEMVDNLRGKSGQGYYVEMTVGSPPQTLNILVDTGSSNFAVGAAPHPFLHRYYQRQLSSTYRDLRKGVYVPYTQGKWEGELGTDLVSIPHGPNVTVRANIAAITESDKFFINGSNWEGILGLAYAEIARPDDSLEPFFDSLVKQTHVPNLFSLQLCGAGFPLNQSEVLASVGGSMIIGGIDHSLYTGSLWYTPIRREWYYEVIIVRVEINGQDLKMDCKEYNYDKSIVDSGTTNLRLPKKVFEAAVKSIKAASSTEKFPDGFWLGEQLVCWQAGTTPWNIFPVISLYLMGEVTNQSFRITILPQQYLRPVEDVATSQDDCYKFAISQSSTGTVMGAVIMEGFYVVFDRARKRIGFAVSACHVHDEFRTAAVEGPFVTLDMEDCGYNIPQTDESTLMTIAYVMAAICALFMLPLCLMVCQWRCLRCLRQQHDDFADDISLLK

COCCC(=O)Nc1cccc(C2(C3CCCCC3)N=C(N)N(C)C2=O)c1 (stereo not drawn)
IC50 [1]: 7860 nM | IC50 [2]: 1850 nM

CCCC(=O)Nc1cccc(C2(C3CCCCC3)N=C(N)N(C)C2=O)c1 (stereo not drawn)
IC50 [1]: 2850 nM | IC50 [2]: 490 nM

NC1=NC(c2ccccc2)(C2CCCCC2)C(=O)N1CCCCCC(=O)O (stereo not drawn)
IC50 [1]: 950 nM | IC50 [2]: 310 nM

CCCCCCN1C(=O)C(c2ccccc2)(C2CCCCC2)N=C1N (stereo not drawn)
IC50 [1]: 1390 nM | IC50 [2]: 270 nM

NC1=NC(c2ccccc2)(C2CCCCC2)C(=O)N1CC1CCCO1 (stereo not drawn)
IC50 [1]: 1040 nM | IC50 [2]: 170 nM

COc1cccc(C(=O)Nc2cccc(C3(C4CCCCC4)N=C(N)N(C)C3=O)c2)c1 (stereo not drawn)
IC50 [1]: 1360 nM | IC50 [2]: 490 nM

CN1C(=O)C(C2CCCCC2)(C2CCCCC2)N=C1N
EC50 [3]: 1030 nM | solubility [4]: > 100 µg/mL | IC50 [1]: 1080 nM | Papp [5]: 2.9 ×10⁻⁶ cm/s | Papp [6]: 7.7 ×10⁻⁶ cm/s | inhibition [7]: 33% | IC50 [2]: 510 nM

CN1C(=O)C(c2cccc(NC(=O)c3ccco3)c2)(C2CCCCC2)N=C1N (stereo not drawn)
IC50 [1]: 100 nM | IC50 [2]: 20 nM

COCC(=O)Nc1cccc(C2(C3CCCCC3)N=C(N)N(C)C2=O)c1 (stereo not drawn)
IC50 [2]: 40 nM

NC1=NC(c2ccccc2)(C2CCCCC2)C(=O)N1C[C@H]1CC[C@H](C(=O)O)CC1 (stereo partly drawn)
IC50 [1]: 390 nM | IC50 [2]: 120 nM

CN1C(=O)C(c2ccccc2)(c2ccccc2)N=C1N
EC50 [3]: 4170 nM | solubility [4]: > 100 µg/mL | Papp [5]: 3 ×10⁻⁶ cm/s | Papp [6]: 11.1 ×10⁻⁶ cm/s | inhibition [7]: 34% | IC50 [2]: 770 nM

NC1=NC(c2ccccc2)(C2CCCCC2)C(=O)N1Cc1cc(F)cc(F)c1 (stereo not drawn)
IC50 [1]: 1080 nM | IC50 [2]: 410 nM

CN1C(=O)C(c2cccc(NC(=O)c3ccc4c(c3)OCO4)c2)(C2CCCCC2)N=C1N (stereo not drawn)
IC50 [1]: 380 nM | IC50 [2]: 1150 nM

CN1C(=O)C(c2cccc(NC(=O)c3cccn3C)c2)(C2CCCCC2)N=C1N (stereo not drawn)
IC50 [2]: 180 nM

CN1C(=O)C(c2ccccc2)(C2CCCCC2)N=C1N (stereo not drawn)
EC50 [3]: 810 nM | solubility [4]: > 100 µg/mL | IC50 [1]: 990 nM | Papp [5]: 7.2 ×10⁻⁶ cm/s | Papp [6]: 12.8 ×10⁻⁶ cm/s | IC50 [8]: 24 µM | inhibition [7]: 38% | IC50 [2]: 510 nM

NC1=NC(c2ccccc2)(C2CCCCC2)C(=O)N1CCCO (stereo not drawn)
inhibition [9]: 56% | IC50 [2]: 1650 nM

Cc1ccoc1C(=O)Nc1cccc(C2(C3CCCCC3)N=C(N)N(C)C2=O)c1 (stereo not drawn)
EC50 [3]: 180 nM | solubility [4]: 41 µg/mL (≈ 104 µM) | Papp [5]: 1.4 ×10⁻⁶ cm/s | Papp [6]: 13.7 ×10⁻⁶ cm/s | IC50 [8]: 17.1 µM | IC50 [2]: 30 nM

NC1=NC(c2ccccc2)(C2CCCCC2)C(=O)N1Cc1ccccc1 (stereo not drawn)
IC50 [1]: 1240 nM | IC50 [2]: 570 nM

NC1=NC(c2ccccc2)(c2ccccc2)C2=NCCCN12
EC50 [3]: 16000 nM | solubility [4]: 55 µg/mL (≈ 189 µM) | Papp [5]: 1 ×10⁻⁶ cm/s | Papp [6]: 8.6 ×10⁻⁶ cm/s | inhibition [7]: 2%
